Key:
[1] = tested on: white male mouse oropharynx sections (oral mucosa); assay: FeCl3 staining of oropharynx sections: interaction of tannin-containing extracts and compositions with the oral mucosa; assay type: binding; settings: sections treated 1 hour with 10%, 5%, 1% and 0.1% in distilled water (w/v); 2% FeCl3 for 15 minutes; optical microscope 40x
Method: 1. Assessment of interaction among plant extracts containing tannins, plant extracts not containing tannins and oral mucosa.
2 μm-thick sections of untreated white male mouse oropharynx, fixed in formalin with 10% phosphate buffer, were used.
Separate deparaffinized and hydrated sections were treated for 1 hour, respectively with
1—10%, 5%, 1% and 0.1% tannic acid in distilled water (weight/volume)
2—10%, 5%, 1% and 0.1% Agrimonia eupatoria extract in distilled water (w/v), equal to, respectively, 100 mg/ml, 50 mg/ml, 10 mg/ml and 1 mg/ml of Agrimonia eupatoria
3—10%, 5%, 1% and 0.1% Hamamelis Virginiana extract in distilled water (w/v), equal to, respectively, 100 mg/ml, 50 mg/ml, 10 mg/ml and 1 mg/ml of Hamamelis Virginiana
4—10%, 5%, 1% and 0.1% Aloe vera extract in distilled water (w/v)
5—10%, 5%, 1% and 0.1% Commiphora myrrha in distilled water (w/v)
6—composition of the invention in the form of tablets (composition example B) in a 10%, 20% 30% and 50% solution, equal to, respectively, 6.67 mg/ml, 13.34 mg/ml, 20.01 mg/ml and 33.35 mg/ml of Agrimonia eupatoria
7—composition of the invention in the form of spray (composition example C) in a 10%, 20%, 50% and 100% solution, equal to, respectively, 3.3 mg/ml, 6.6 mg/ml, 16.5 mg/ml and 33 mg/ml of Agrimonia eupatoria, […]
The sections were analyzed at the optical microscope (40× magnification) and photographed with a digital camera.

laboratory animals = settings: cited from earlier work

## O=C(OC[C@H]1O[C@@H](OC(=O)c2cc(O)c(O)c(OC(=O)c3cc(O)c(O)c(O)c3)c2)[C@H](OC(=O)c2cc(O)c(O)c(OC(=O)c3cc(O)c(O)c(O)c3)c2)[C@@H](OC(=O)c2cc(O)c(O)c(OC(=O)c3cc(O)c(O)c(O)c3)c2)[C@@H]1OC(=O)c1cc(O)c(O)c(OC(=O)c2cc(O)c(O)c(O)c2)c1)c1cc(O)c(O)c(OC(=O)c2cc(O)c(O)c(O)c2)c1 [Sample 1, tannic acid]
[1]
  FeCl3 staining of oropharynx sections: Staining intensity is dependent on concentration
Laboratory animals
  tumour finding after subcutaneous administration: onset of hepatic tumours

Source: patent US11357813B2, “Composition comprising tannins” (ABOCA S.P.A SOCIETÀ AGRICOLA, priority 2015, dated 2022)
